≈ marks a conversion by molar mass, not a printed value.
Tests used:
[1] = system: Staphylococcus aureus; test: Antimicrobial activity against methicillin-resistant Staphylococcus aureus PL1 by broth dilution method; assay type: functional
[2] = system: Streptococcus pneumoniae; test: Antimicrobial activity against Streptococcus pneumoniae ATCC 49619 by broth dilution method; assay type: functional
[3] = system: Escherichia coli; test: Inhibition of Escherichia coli MurD ligase assessed as residual activity at 1 mM after 30 mins
[4] = system: Citrobacter freundii; test: Antimicrobial activity against Citrobacter freundii ATCC 8090 by broth dilution method; assay type: functional
[5] = system: Bacillus subtilis; test: Antimicrobial activity against Bacillus subtilis ATCC 6633 by broth dilution method; assay type: functional
[6] = system: Staphylococcus aureus; test: Antimicrobial activity against Staphylococcus aureus ATCC 25923 by broth dilution method; assay type: functional
[7] = system: Proteus mirabilis; test: Antimicrobial activity against Proteus mirabilis ATCC 29936 by broth dilution method; assay type: functional
[8] = system: Staphylococcus epidermidis; test: Antimicrobial activity against Staphylococcus epidermidis ATCC 12228 by broth dilution method; assay type: functional
[9] = system: Enterococcus faecalis; test: Antimicrobial activity against Enterococcus faecalis ATCC 29212 by broth dilution method; assay type: functional
[10] = system: Listeria innocua; test: Antimicrobial activity against Listeria innocua ATCC 33090 by broth dilution method; assay type: functional
[11] = system: Pseudomonas aeruginosa; test: Antimicrobial activity against Pseudomonas aeruginosa ATCC 27853 by broth dilution method; assay type: functional
[12] = system: Enterococcus faecalis; test: Antimicrobial activity against Enterococcus faecalis ATCC 19433 by broth dilution method; assay type: functional
[13] = system: Enterococcus faecium; test: Antimicrobial activity against Enterococcus faecium ATCC 19434 by broth dilution method; assay type: functional
[14] = system: Enterococcus hirae; test: Antimicrobial activity against Enterococcus hirae ATCC 9790 by broth dilution method; assay type: functional
[15] = system: Escherichia coli; test: Antimicrobial activity against Escherichia coli ATCC 8739 by broth dilution method; assay type: functional
[16] = system: Klebsiella pneumoniae; test: Antimicrobial activity against Klebsiella pneumoniae ATCC 13883 by broth dilution method; assay type: functional
[17] = system: Micrococcus luteus; test: Antimicrobial activity against Micrococcus luteus ATCC 9314 by broth dilution method; assay type: functional
[18] = Inhibition of Escherichia coli MurD ligase assessed as addition of D-[3H]glu to UDP-N-acetyl-muramoyl-L-alanine after 30 mins
[19] = system: Staphylococcus aureus; test: Antimicrobial activity against methicillin-resistant Staphylococcus aureus ATCC 43300 by broth dilution method; assay type: functional
[20] = system: Listeria monocytogenes; test: Antimicrobial activity against Listeria monocytogenes ATCC 14780 by broth dilution method; assay type: functional
[21] = system: Streptococcus pneumoniae; test: Antimicrobial activity against Streptococcus pneumoniae D39 by broth dilution method; assay type: functional
[22] = system: Streptococcus pneumoniae; test: Antimicrobial activity against Streptococcus pneumoniae ATCC 33400 by broth dilution method; assay type: functional
[23] = system: Escherichia coli; test: Inhibition of Escherichia coli MurD ligase assessed as residual activity at 500 uM after 30 mins

SMILES	MIC [1] [µg/mL]	MIC [2] [µg/mL]	MIC [4] [µg/mL]	MIC [5] [µg/mL]	MIC [6] [µg/mL]	MIC [7] [µg/mL]	MIC [8] [µg/mL]	MIC [9] [µg/mL]	MIC [10] [µg/mL]	MIC [11] [µg/mL]	MIC [12] [µg/mL]	MIC [13] [µg/mL]	MIC [14] [µg/mL]	MIC [15] [µg/mL]	MIC [16] [µg/mL]	MIC [17] [µg/mL]	MIC [19] [µg/mL]	MIC [20] [µg/mL]	MIC [21] [µg/mL]	MIC [22] [µg/mL]	other results
CCCCOc1ccc2cc(S(=O)(=O)Nc3ccc(C(=O)O)cc3C(=O)O)ccc2c1	> 512	> 512	> 512	> 512	> 512	> 512	> 512	> 512	> 512	> 512	> 512	> 512	> 512	> 512	> 512	> 512	> 512	> 512	> 512	> 512	Activity [3]: 8%; IC50 [18]: 127 µM; Ki [18]: 87 µM
N#Cc1ccc(COc2ccc3cc(S(=O)(=O)Nc4ccc(C(=O)O)cc4C(=O)O)ccc3c2)c(F)c1	> 512	> 512	> 512	> 512	> 512	> 512	> 512	> 512	> 512	> 512	> 512	> 512	> 512	> 512	> 512	> 512	> 512	> 512	> 512	> 512	Activity [3]: 0.79%; IC50 [18]: 8.4 µM; Ki [18]: 5.8 µM
CCCCOc1ccc2cc(S(=O)(=O)N[C@@H]3CCCC[C@H]3C(=O)O)ccc2c1	256 (≈ 631 µM)	64 (≈ 158 µM)	> 512	64 (≈ 158 µM)	256 (≈ 631 µM)	> 512	256 (≈ 631 µM)	256 (≈ 631 µM)	32 (≈ 78.9 µM)	> 512	512 (≈ 1260 µM)	256 (≈ 631 µM)	64 (≈ 158 µM)	> 512	> 512	> 512	256 (≈ 631 µM)	32 (≈ 78.9 µM)	64 (≈ 158 µM)	64 (≈ 158 µM)	Activity [3]: 100%
CCCCOc1ccc2cc(S(=O)(=O)N[C@H](CCC(=O)O)C(=O)O)ccc2c1	–	–	–	–	–	–	–	–	–	–	–	–	–	–	–	–	–	–	–	–	IC50 [18]: 280 µM; Ki [18]: 192 µM
N#Cc1ccc(COc2ccc3cc(S(=O)(=O)N4CCC(C(=O)O)CC4)ccc3c2)c(F)c1	–	–	–	–	–	–	–	–	–	–	–	–	–	–	–	–	–	–	–	–	Activity [23]: 94%
N#Cc1ccc(COc2ccc3cc(S(=O)(=O)N[C@H]4CCCC[C@H]4C(=O)O)ccc3c2)c(F)c1	256 (≈ 531 µM)	> 512	> 512	> 512	256 (≈ 531 µM)	> 512	256 (≈ 531 µM)	> 512	> 512	> 512	> 512	256 (≈ 531 µM)	> 512	> 512	> 512	> 512	256 (≈ 531 µM)	> 512	> 512	> 512	Activity [3]: 45%
CCCCOc1ccc2cc(S(=O)(=O)NC3CCC(C(=O)O)CC3C(=O)O)ccc2c1 (racemic)	32 (≈ 71.2 µM)	64 (≈ 142 µM)	> 512	64 (≈ 142 µM)	128 (≈ 285 µM)	> 512	128 (≈ 285 µM)	256 (≈ 569 µM)	32 (≈ 71.2 µM)	> 512	128 (≈ 285 µM)	128 (≈ 285 µM)	32 (≈ 71.2 µM)	> 512	> 512	> 512	128 (≈ 285 µM)	32 (≈ 71.2 µM)	64 (≈ 142 µM)	64 (≈ 142 µM)	Activity [3]: 89%
N#Cc1ccc(COc2ccc3cc(S(=O)(=O)NC4CCC(C(=O)O)CC4C(=O)O)ccc3c2)c(F)c1 (racemic)	> 512	> 512	> 512	> 512	> 512	> 512	> 512	> 512	> 512	> 512	> 512	> 512	> 512	> 512	> 512	> 512	> 512	> 512	> 512	> 512	Activity [3]: 14%
N#Cc1ccc(COc2ccc3cc(S(=O)(=O)Nc4cc(C(=O)O)cc(C(=O)O)c4)ccc3c2)c(F)c1	> 512	> 512	> 512	> 512	> 512	> 512	> 512	> 512	> 512	> 512	> 512	> 512	> 512	> 512	> 512	> 512	> 512	> 512	> 512	> 512	Activity [3]: 2%; IC50 [18]: 50 µM; Ki [18]: 34 µM
CCCCOc1ccc2cc(S(=O)(=O)N3CCC(C(=O)O)CC3)ccc2c1	–	–	–	–	–	–	–	–	–	–	–	–	–	–	–	–	–	–	–	–	Activity [23]: 97%
CCCCOc1ccc2cc(S(=O)(=O)Nc3cc(C(=O)O)ccc3C(=O)O)ccc2c1	> 512	> 512	> 512	> 512	> 512	> 512	> 512	> 512	> 512	> 512	> 512	> 512	> 512	> 512	> 512	> 512	> 512	> 512	> 512	> 512	Activity [23]: 78%
CCCCOc1ccc2cc(S(=O)(=O)N[C@H]3CCCC[C@H]3C(=O)O)ccc2c1	128 (≈ 316 µM)	64 (≈ 158 µM)	> 512	64 (≈ 158 µM)	256 (≈ 631 µM)	> 512	256 (≈ 631 µM)	256 (≈ 631 µM)	32 (≈ 78.9 µM)	> 512	512 (≈ 1260 µM)	256 (≈ 631 µM)	64 (≈ 158 µM)	> 512	> 512	> 512	128 (≈ 316 µM)	32 (≈ 78.9 µM)	64 (≈ 158 µM)	64 (≈ 158 µM)	Activity [3]: 93%
N#Cc1ccc(COc2ccc3cc(S(=O)(=O)N[C@@H]4CCCC[C@H]4C(=O)O)ccc3c2)c(F)c1	> 512	> 512	> 512	> 512	> 512	> 512	> 512	> 512	> 512	> 512	> 512	> 512	> 512	> 512	> 512	> 512	> 512	> 512	> 512	> 512	Activity [3]: 88%
CCCCOc1ccc2cc(S(=O)(=O)Nc3cc(C(=O)O)cc(C(=O)O)c3)ccc2c1	> 512	> 512	> 512	> 512	> 512	> 512	> 512	> 512	> 512	> 512	> 512	> 512	> 512	> 512	> 512	> 512	> 512	> 512	> 512	> 512	Activity [23]: 70%
CCCCOc1ccc2cc(S(=O)(=O)Nc3ccc(O)cc3C(=O)O)ccc2c1	> 512	64 (≈ 154 µM)	> 512	> 512	> 512	> 512	> 512	256 (≈ 616 µM)	> 512	> 512	> 512	256 (≈ 616 µM)	256 (≈ 616 µM)	> 512	> 512	256 (≈ 616 µM)	> 512	> 512	64 (≈ 154 µM)	32 (≈ 77 µM)	Activity [23]: 76%
N#Cc1ccc(COc2ccc3cc(S(=O)(=O)N[C@H](CCC(=O)O)C(=O)O)ccc3c2)c(F)c1	–	–	–	–	–	–	–	–	–	–	–	–	–	–	–	–	–	–	–	–	Ki [18]: 58 µM
N#Cc1ccc(COc2ccc3cc(S(=O)(=O)Nc4cc(C(=O)O)ccc4C(=O)O)ccc3c2)c(F)c1	> 512	> 512	> 512	> 512	> 512	> 512	> 512	> 512	> 512	> 512	> 512	> 512	> 512	> 512	> 512	> 512	> 512	> 512	> 512	> 512	Activity [3]: 2%; IC50 [18]: 38 µM; Ki [18]: 26 µM

From ChEMBL document CHEMBL1811859, “Second-generation sulfonamide inhibitors of D-glutamic acid-adding enzyme: activity optimisation with conformationally rigid analogues of D-glutamic acid” (Eur J Med Chem, 2011)
